From patent US20230150951A1, “2,5- OR 2,6-DISUBSTITUTED HYDROQUINONE DERIVATIVES WITH AT LEAST ONE CARBOXY, SULFO OR AMIDO GROUP USEFUL AS MEDICAMENTS” (OM PHARMA SA, priority 2020, published 2023)

Key:
Format in all cases: cell-based
Human neutrophils [1] = test: Inhibition of ROS production in human neutrophils (isoluminol chemiluminescence); conditions: Homo sapiens, Neutrophil, fMLP+TNF-α stimulated PMN
From the text: NADPH oxidase, located in the plasma membrane and in the membranes of specific granules, produces superoxide anions from which other ROS, such as hydrogen peroxide, singlet oxygen, hypochlorite, and active hydroxyl radicals. ROS are released into the surrounding medium or into a membrane-enclosed subcellular organelle. One quick and sensitive method for measuring the generation of these metabolites is chemiluminescence (CL). Isoluminol amplified CL technique, is very sensitive and widely used to study respiratory burst (mainly extracellular production of ROS) induced in neutrophils.
Human neutrophils were isolated from buffy coats which obtained from healthy donors. The isolated neutrophils (3×10^6/ml) were suspended in Hanks' Balanced Salt Solution (HBSS) with Calcium and Magnesium. Neutrophils were pre-incubated with the compounds at different concentrations (0.1, 0.3, 1, 3 and 10 μM) for 30 min at 37° C. The black 96-well cell culture plates were coated with human fibrinogen (0.25 mg/ml in PBS), and incubated overnight at 4° C. or 2 hr at 37° C. Then the plates were washed with endotoxin-free PBS. The neutrophils were incubated (priming) with TNF-α (20 ng/ml) for 10 minutes at 37° C. Thereupon the 75 μl of cell suspension and 75 μl (Isoluminol+HRP solution) were added to each well. The chemiluminescence was recorded (every 25 sec for 250 sec) after fMLP (1 μM) activation using a Multilabel Reader victor3 (Perkin Elmer, USA). Background values, defined as the mean chemiluminescent values of isoluminol diluted in HBSS, were subtracted from all readings (CPS, count per second). The assays were done in duplicate or triplicate.

FGF-2 = biological target: T1, FGF-2 (Homo sapiens, UniProt P09038); test: FGF-2 induced sprouting of HUVEC, spheroid-based cellular angiogenesis assay; conditions: FGF-2 25 ng/mL preincubated with compound, 24 h
T1 construct: purchased Peprotech 100-18C
T1 sequence (P09038 134-288): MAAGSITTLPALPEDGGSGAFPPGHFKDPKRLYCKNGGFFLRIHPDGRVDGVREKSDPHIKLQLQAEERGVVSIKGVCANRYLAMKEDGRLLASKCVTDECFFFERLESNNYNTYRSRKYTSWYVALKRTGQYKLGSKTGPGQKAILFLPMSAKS
Description: (§1) Aim of this in vitro method is to assess compounds effects on FGF-2, FGF-1, or VEGF-A induced sprouting of human umbilical vein endothelial cells (HUVEC) in the spheroid-based cellular angiogenesis assay. Before adding the growth factors to the cells, they were preincubated with the compound. Sunitinib was tested as a control (without preincubation).
(§2) IC50 values determined for the tested compounds are expressed in microM [μM] and the values for the inhibition of FGF-1, FGF2 and VEGF-A induced growth (sprouting) are listed after each compound in the examples after chemical characterization.
(§3) Sprouting test was performed on the compounds dissolved in DMSO to reach 100-fold concentrated stock solutions and dissolved in culture media. Sunitinib as reference compound was provided by ProQinase GmbH. Growth factors were purchased from rhFGF-basic (FGF-2), Peprotech, New Jersey, USA, #100-18C, Lot #0415571; rhFGF-acidic (FGF-1), Peprotech, New Jersey, USA, #100-17A, Lot #031207; hVEGF-A165 (ProQinase GmbH, Freiburg, Germany; 05.02.2010) were used for stimulation of HUVEC cells growth.
(§4) Test system: Endothelial cells from human umbilical vein (HUVEC) from pooled donors were stored frozen with 70% medium, 20% FCS, 10% DMSO at about 1×10^6 cells/ampoule. HUVEC cells, primary human umbilical vein endothelial cells (PromoCell, Heidelberg, Germany), were used after passage 3 to 4. Morphology of the cells are adherent, cobblestone-like growing as monolayer and were cultured in endothelial cell growth and basal medium (ECGM/ECBM, PromoCell). The subculture was split 1:3; every 3-5 days, seed out at ca. 1×10^4 cells/cm^2 and incubated at 37° C. with 5% CO2 with a doubling time 24-48 hours
(§5) Dilution of test compounds: 100× concentrated solutions (concerning to the final assay concentrations) of each test compound were prepared with the appropriate solvent (in DMSO or in water). These 100×compound solutions were further diluted in endothelial cell growth and basal medium (ECBM) 1:7.5 to get a 13.33× concentrated solution. 75 μl of the 13.33×solution was subsequently mixed with 25 μl of 40× concentrated stimulus (solved in ECBM), resulting in a 10×concentrated stimulus/compound mixture. This mixture (100 μl) was incubated for 30 min at 37° C. and then added to 900 μl gel, containing the HUVEC spheroids (resulting in the final assay concentration).
(§6) Test method: the experiments were pursued in modification of the originally published protocol (Korff and Augustin: J Cell Sci 112: 3249-58, 1999). In brief, spheroids were prepared as described (Korff and Augustin: J Cell Biol 143: 1341-52, 1998) by pipetting 400 HUVEC in a hanging drop on plastic dishes to allow overnight spheroid aggregation. 50 HUVEC spheroids were then seeded in 0.9 ml of a collagen gel and pipetted into individual wells of a 24 well plate to allow polymerization. The test compounds were preincubated with the growth factors (FGF-1, FGF-2 or VEGF-A final concentration 25 ng/mL) in a 10-fold concentrated solution and subsequently, 100 μl of this solution was added on top of the polymerized gel. All compounds were diluted in solvent (DMSO or water) as 100×stocks first (which means 100×stocks of each final assay concentration were prepared in solvent). Subsequently, these stocks were further diluted in medium (resulting in the 13.33×stocks of each final assay concentration) with final concentrations tested: 100, 50, 25, 12.5, 6.25, 3.13 and 1.56×10^−6 M). Plates were incubated at 37° C. for 24 hours and fixed by adding 4% PFA (Roth, Karlsruhe, Germany).
(§7) Quantification of growth factor inhibition: sprouting intensity of HUVEC spheroids treated with the growth factor and the inhibitors were quantitated by an image analysis system determining the cumulative sprout length per spheroid (CSL).

VEGFR-2 = biological target: T2, VEGFR-2 (Homo sapiens, UniProt P35968); test: VEGF-165 induced phosphorylation of VEGF-Receptor on HUVEC; conditions: HUVEC preincubated 60 min, VEGF165 25 ng/mL 2 min; read-out: VEGFR-Phosphorylation inhibition IC50
T2 construct: endogenous in cells; host or cells: primary HUVEC
T2 sequence (P35968 20-1356): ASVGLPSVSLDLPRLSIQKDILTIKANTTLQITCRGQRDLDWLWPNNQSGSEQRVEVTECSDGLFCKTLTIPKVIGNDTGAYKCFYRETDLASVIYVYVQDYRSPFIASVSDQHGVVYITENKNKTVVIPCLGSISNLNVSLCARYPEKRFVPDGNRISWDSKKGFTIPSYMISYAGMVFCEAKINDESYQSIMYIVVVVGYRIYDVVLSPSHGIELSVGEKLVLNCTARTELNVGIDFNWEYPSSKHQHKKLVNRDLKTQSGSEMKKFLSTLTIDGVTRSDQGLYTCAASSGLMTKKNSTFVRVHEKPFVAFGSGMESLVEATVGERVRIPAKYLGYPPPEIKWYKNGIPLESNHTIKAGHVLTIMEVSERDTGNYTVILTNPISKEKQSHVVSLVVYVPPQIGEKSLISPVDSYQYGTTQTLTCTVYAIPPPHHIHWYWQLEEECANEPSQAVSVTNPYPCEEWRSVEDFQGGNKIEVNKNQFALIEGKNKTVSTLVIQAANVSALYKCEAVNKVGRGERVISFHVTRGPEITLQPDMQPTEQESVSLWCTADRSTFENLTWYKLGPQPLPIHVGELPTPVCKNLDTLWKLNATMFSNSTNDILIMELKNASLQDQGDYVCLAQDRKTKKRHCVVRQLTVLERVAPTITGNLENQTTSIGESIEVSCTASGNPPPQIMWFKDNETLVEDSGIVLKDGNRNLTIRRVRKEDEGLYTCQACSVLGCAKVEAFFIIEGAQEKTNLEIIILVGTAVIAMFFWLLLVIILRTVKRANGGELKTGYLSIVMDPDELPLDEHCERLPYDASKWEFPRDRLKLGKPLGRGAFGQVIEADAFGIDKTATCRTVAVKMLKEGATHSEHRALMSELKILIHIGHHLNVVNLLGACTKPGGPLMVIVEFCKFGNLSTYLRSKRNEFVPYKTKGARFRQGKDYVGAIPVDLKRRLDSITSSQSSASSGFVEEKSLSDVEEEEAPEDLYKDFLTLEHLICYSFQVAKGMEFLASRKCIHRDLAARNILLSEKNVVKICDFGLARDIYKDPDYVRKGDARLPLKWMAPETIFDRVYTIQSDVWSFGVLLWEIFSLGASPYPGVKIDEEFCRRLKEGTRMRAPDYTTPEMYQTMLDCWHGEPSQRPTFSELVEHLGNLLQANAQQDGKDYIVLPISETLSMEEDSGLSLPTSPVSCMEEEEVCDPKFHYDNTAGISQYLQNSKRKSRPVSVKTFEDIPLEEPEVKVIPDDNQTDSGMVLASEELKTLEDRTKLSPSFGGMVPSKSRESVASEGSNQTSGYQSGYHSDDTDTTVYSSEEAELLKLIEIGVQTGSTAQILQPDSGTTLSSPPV
Description: Cell culture: Primary human umbilical vein endothelial cells (HUVECs) were routinely cultured in 0.1% gelatin pre-coated flasks or dishes, up to passage 6. […]
Rabbit primary antibodies for VEGFR-2, p-Tyr1175 were acquired from Cell Signaling Technology (Leiden, The Netherlands). Phospho-VEGFR-2 (Tyr1175) Sandwich ELISA Kit was from Cell Signaling Technology.
[…] Western blot analysis was performed using anti-phospho-VEGFR-2 antibody and total VEGFR-2 was used as a loading control after membrane stripping.
Inhibition of VEGFR-2-phosphorylation results are expressed as IC50 in microM [μM] versus VEGF-treated HUVECs control without inhibitory compound.

FGF-1 = biological target: T3, FGF-1 (Homo sapiens, UniProt P05230); test: FGF-1 induced sprouting of HUVEC, spheroid-based cellular angiogenesis assay; conditions: FGF-1 25 ng/mL preincubated with compound, 24 h
T3 construct: purchased Peprotech 100-17A
T3 sequence (P05230 whole entry): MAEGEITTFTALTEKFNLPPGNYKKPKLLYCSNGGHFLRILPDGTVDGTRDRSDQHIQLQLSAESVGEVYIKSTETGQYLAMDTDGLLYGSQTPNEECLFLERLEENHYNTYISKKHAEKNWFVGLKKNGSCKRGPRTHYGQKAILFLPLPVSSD
Description: as §1, §2, §3, §4, §5, §6, §7

Human neutrophils [2] = test: Neutrophil adhesion under static conditions; conditions: fMLP-stimulated adhesion to fibrinogen; method: 40 μM and 80 μM, concentration of the value not stated
Description: Human neutrophils obtained from buffy coats of healthy donors were suspended at 3×10^6/ml in adhesion buffer (PBS containing 1 mM CaCl2)/MgCl2 and 10% FCS, pH 7.2). Neutrophils were preincubated for 30 min at 37° C. with 40 μM and 80 μM of the compounds.
Adhesion assays were performed on 18-well glass slides coated for 18 h at 4° C. with human fibrinogen (20 μg/well in endotoxin-free PBS); 20 μl of cell suspension were added to each well and stimulated for 1 min at 37° C. with 5 μl of fMLP 1 nM final concentration. After washing, adherent cells were fixed in glutaraldehyde 1.5% in PBS and counted by computer-assisted enumeration. Statistical analysis was performed by calculating mean and standard deviation (SD); significance was calculated by unpaired t-test. All statistical analyses were performed using GraphPad Prism 6 (GraphPad Software).

IC50 (Human neutrophils [1]) | IC50 (FGF-2) | IC50 (VEGFR-2) | IC50 (FGF-1) | SMILES | inhibition at 0.3 µM (Human neutrophils [1]) | Neutrophil adhesion inhibition (Human neutrophils [2])
1 µM | 50 µM | 3.61 µM | 47 µM | O=C(O)c1cc(O)c(CS(=O)(=O)Cc2cc(O)c(C(=O)O)cc2O)cc1O [IIIc-059a, 4-((2,5-Dihydroxy-4-carboxyphenyl)methylsulfonylmethyl)-2,5-dihydroxybenzoic acid] | 66.4% | 14.67%
0.41 µM | 71 µM | 36 µM | 20 µM | O=C(O)c1cc(O)c(C(=O)NCc2ccc(O)c(O)c2)cc1O [Ia-035a, 4-(3,4-Dihydroxyphenylmethylaminocarbonyl)-2,5-dihydroxybenzoic acid] | 75.1% | 27%
7.9 µM | 49 µM | 0.25 µM | 23 µM | COC(=O)c1cc(NC(=O)c2cc(O)c(C(=O)Nc3ccc(O)c(C(=O)OC)c3)cc2O)ccc1O [Ic-007a-E2, methyl 5-(2,5-dihydroxy-4-(4-hydroxy-3-(methoxycarbonyl)phenylaminocarbonyl)benzamido)-2-hydroxybenzoate] | 21.3% | 2%
1.18 µM | 123 µM | ≥ 100 µM | 141 µM | O=C(O)c1cc(O)cc(C(=O)Nc2cccc(C(=O)O)c2C(=O)O)c1O [IIa-011a, 3-(3-carboxy-2,5-dihydroxybenzamido)phthalic acid] | 58.1% | 26%
0.914 µM | 32 µM | 4.9 µM | 35 µM | O=C(O)Cc1cccc(NC(=O)c2cc(O)cc(C(=O)O)c2O)c1 [IIa-033a, 3-(3-(carboxymethyl)phenylaminocarbonyl)-2,5-dihydroxybenzoic acid] | 50.6% | 11.75%
 | 13 µM | 2.5 µM | 22 µM | O=C(O)c1ccc(NC(=O)c2cc(O)cc(C(=O)O)c2O)cc1 [IIa-003a, 3-(4-carboxyphenylaminocarbonyl)-2,5-dihydroxybenzoic acid] | 59.3% | 35.27%
 | 42 µM | ≥ 100 µM | ≥ 200 µM | CCOC(=O)c1cc(O)cc(C(=O)Nc2ccccc2-c2nnn[nH]2)c1O [IIa-001aTz-E1, ethyl 3-(2-(1H-tetrazol-5-yl)phenylaminocarbonyl)-2,5-dihydroxybenzoate] | 68.9% | 81.94%
0.408 µM | 11 µM | ≥ 100 µM | 8.6 µM | O=C(O)c1ccccc1NC(=O)c1cc(O)cc(C(=O)O)c1O [IIa-001a, 3-(2-carboxyphenylaminocarbonyl)-2,5-dihydroxybenzoic acid] | 30.5% | 36.24%
1.32 µM | 165 µM | ≥ 100 µM | 60 µM | O=C(O)Cc1cccc(NC(=O)c2cc(O)c(C(=O)O)cc2O)c1 [Ia-033a, 4-(3-(carboxymethyl)phenylaminocarbonyl)-2,5-dihydroxybenzoic acid] | 57.7% | 38%
 | 30 µM | 0.02 µM | 23 µM | COC(=O)c1cc(O)ccc1NC(=O)c1cc(O)c(C(=O)Nc2ccc(O)cc2C(=O)OC)cc1O [Ic-009a-E2, methyl 2-(2,5-dihydroxy-4-(4-hydroxy-2-(methoxycarbonyl)phenylaminocarbonyl)benzamido)-5-hydroxybenzoate] | 24.1% | 41.05%
1 µM | 33 µM | ≥ 100 µM | 47 µM | O=C(O)c1cc(NC(=O)c2cc(O)cc(C(=O)O)c2O)ccc1O [IIa-004a, 3-(3-carboxy-4-hydroxyphenylaminocarbonyl)-2,5-dihydroxybenzoic acid] | 63.5% | 36%
 | 36 µM | 6.1 µM | 35 µM | CCOC(=O)c1cc(O)c(C(=O)Nc2ccc(O)c(C(=O)OC)c2)cc1O [Ia-004a-E2, ethyl 2,5-dihydroxy-4-(4-hydroxy-3-(methoxycarbonyl)phenylaminocarbonyl)benzoate] | 85.3% | 97.65%
